Patent US20230104124A1, “N-PALMITOYLETHANOLAMIDE AND DOCOSAHEXAENOIC ACID FOR USE IN THE TREATMENT OF AUTISM SPECTRUM DISORDER AND OTHER DEPRESSIVE SYNDROMES” (EPITECH GROUP S.P.A., priority 2021, published 2023)

How the values were obtained:
BTBR mice [1] = assay: Marble Burying test in BTBR mice; format: in vivo; details: per os daily for 10 days, PEA-um 1 mg/kg, DHA 5 mg/kg (30 mg/kg DHA 17% titer), 8 animals per group
Text: (§1) Healthy male C57BL/6J (C57) mice and 90-day BTBR T+tf/J (BTBR) mice (The Jackson Laboratory, Bar Harbor, ME, USA) fed ad libitum and housed in controlled sleep/wake cycle cages were used in the in vivo trial. Before the start of the experimentation, the animals were subjected to an acclimatization period of 1 week considering all the experimental procedures and protocols, compliant with the principles of care and welfare of laboratory animals approved by the Italian Ministry of Health (Italian Legislative Decree 2014/26) and European directives (EU Directive 2010/63). […]
(§2) All the values reported in the results are expressed as mean ± standard error of the mean (SEM) of N observations (N = number of animals). The statistical differences in the ALLO dosage and behavioral score were analyzed with one-way ANOVA, followed by Sidak’s multiple comparisons. […]

BTBR mice [2] = assay: Self Grooming test in BTBR mice; format: in vivo; details: monitored for 20 minutes, per os daily for 10 days, PEA-um 1 mg/kg, DHA 5 mg/kg (30 mg/kg DHA 17% titer)
Text: as §1, §2
In the Self Grooming test, the mice were placed in an empty plexiglass cage (30x40 cm) and allowed to freely explore the arena. After 10 minutes of acclimatization, self grooming activity was monitored for 20 minutes. […]

BTBR mice [3] = assay: Sociability, three-chamber test in BTBR mice; format: in vivo; details: per os daily for 10 days, PEA-um 1 mg/kg, DHA 5 mg/kg (30 mg/kg DHA 17% titer)
Text: as §1, §2
(§3) In the last 10-minute phase, the preference of the mouse in staying in the empty chamber or in the presence of the mouse was evaluated (Crawley JN, Designing mouse behavioral tasks relevant to autistic-like behaviors, Ment. Retard Dev. Disabil. Res. Rev. 2004, 10: 248-258). The time spent in each chamber was detected by a camera coupled to video tracking software.

C57 mice = assay: Sociability, three-chamber test in healthy C57 mice; format: in vivo; details: per os daily for 10 days, PEA-um 1 mg/kg, DHA 5 mg/kg (30 mg/kg DHA 17% titer)
Text: as §1, §2, §3

plasma ALLO levels = assay: Plasma ALLO neurosteroid levels in BTBR mice; format: in vivo; details: plasma 10 days after starting daily per os treatment, PEA-um 1 mg/kg, DHA 5 mg/kg (30 mg/kg DHA 17% titer)
Text: as §1, §2

[4] = tested on: mice with a simil-autistic phenotype; details: cited from earlier work
autistic children = details: PEA-um 600 mg/day, 3-month treatment; cited from earlier work
[5] = intravenous infusion; during the 60 hours of administration; cited from earlier work

| Structure (SMILES) | Number of marbles buried in 15 min (obsessive behavior) (BTBR mice [1]) | Time spent self-grooming (repetitive behavior) (BTBR mice [2]) | Sociability (time spent in empty chamber or chamber occupied by a mouse) (BTBR mice [3]) | Sociability (time spent in empty chamber or chamber occupied by a mouse) (C57 mice) | Plasma ALLO levels (plasma ALLO levels) | Altered behavioral status [4] | Expression of pro-inflammatory hippocampal and serum cytokines IL-6, IL-1b and TNF-a [4] | Clinical effect on autistic symptoms (autistic children) | Risks during administration [5] |
| --- | --- | --- | --- | --- | --- | --- | --- | --- | --- |
| CCCCCCCCCCCCCCCC(=O)NCCO [PEA-um, N-palmitoylethanolamide] | obsessively bury the marbles | did not demonstrate any reduction in the time (s) spent self-grooming | did not demonstrate social improvements | enhanced sociability to another mouse | significant reduction in plasma ALLO levels | modulating the altered behavioral status | reducing the expression of the pro-inflammatory hippocampal and serum cytokines IL-6, IL-1b and TNF-a | improves aggressiveness, cognitive and behavioral skills, and communication | – |
| CC(=O)[C@H]1CC[C@H]2[C@@H]3CC[C@H]4C[C@H](O)CC[C@]4(C)[C@H]3CC[C@]12C [Zulresso, allopregnanolone] | – | – | – | – | – | – | – | – | risk of excessive sedation, sudden loss of consciousness or dizziness |
